Experimental data reported in paper PMC6874132, “Biosensors Show the Pharmacokinetics of S-Ketamine in the Endoplasmic Reticulum” (Frontiers in Cellular Neuroscience, 2019).
Several values for one entry are separate records, joined by “and”; a condition that tells them apart may be missing. Identical values can stand only once.

What was measured:
iSketSnFR1 (AK2) = assay: Dose-response of purified iSketSnFR1 (AK2) biosensor fluorescence; type: biochemical
Method: (§1) A Tecan Spark M10 96-well fluorescence plate reader (equipped with appropriate filters) was used to measure resting and S-ketamine-induced fluorescence (F0 and ΔF, respectively). Bacterial lysates were tested with excitation at 485 nm and emission at 535 nm. Promising clones were amplified and sequenced.
(§2) Biosensors selected for further study were purified with the His6 sequence included in the bacterial expression vector (Shivange et al., [2019]). Proteins were purified by immobilization in phosphate-buffered saline (PBS), pH 7.4, and elution in an imidazole gradient (10–200 mM). Proteins were concentrated by centrifugation through a 30 kDa cut off column, and by dialysis against PBS. The dialyzed protein was quantified using a nanodrop spectrofluorometer, and 50 or (preferably) 100 nM was used in dose-response studies to characterize responses to various ligands. Dose-response relations for ligands were conducted with the plate reader. The pH-dependent dose-response studies with purified iSketSnFR constructs were performed using 3× PBS buffers.
(§3) We introduce a convenient metric to summarize progress in evolving increasingly sensitive fluorescent biosensors for drugs. The metric, the S-slope, is especially appropriate for low drug concentrations because it corresponds to the relationship between [drug] and ΔF at the beginning of the dose-response relation. We define the S-slope for use with intensity-based drug biosensors:
(§4) S−slope = Δ(F/F0)/(Δ[drug]).
(§5) We state the S-slope in units of μM^−1.
(§6) This article uses the S-slope for measurements on S-ketamine biosensors in bacterial lysates, with purified proteins, and expressed in cells. […] In this case, we calculated (as in Figure 2A below),

iSketSnFR2 (AK8) = assay: Dose-response of purified iSketSnFR2 (AK8) biosensor fluorescence; type: biochemical
Method: as §1, §2, §3, §4, §5, §6

AK1 = assay: S-ketamine dose-response of biosensor construct AK1; type: biochemical; conditions: at 1 μM S-ketamine; Gly residue at position 357
From the text: Starting with the iNicSnFR biosensor constructs (Shivange et al., [2019]), we constructed and measured ~3,000 mutants, in iterative rounds of site-saturated mutagenesis (SSM). We utilized the Quikchange mutagenesis protocol (Agilent), including a mixture of three primers, creating 22 unique codons encoding the 20 canonical amino acids (Kille et al., [2013]). The 22-codon procedure yields an estimated >96% residue coverage for a collection of 96 randomly chosen clones.
as §1, with “sequenced. […]” for “sequenced.”
Biosensors selected for further study were purified with the His6 sequence included in the bacterial expression vector (Shivange et al., [2019]). […] The dialyzed protein was quantified using a nanodrop spectrofluorometer, and 50 or (preferably) 100 nM was used in dose-response studies to characterize responses to various ligands. Dose-response relations for ligands were conducted with the plate reader. […]
as §6

[1] = system: iSketSnFR1_PM or iSketSnFR1_ER; assay: Time-resolved fluorescence in Neuro2a cells transfected with iSketSnFR1 constructs; type: cell-based; conditions: 20 s pulses (Figure 4), read-out: half-maximal concentration of S-ketamine
From the text: (§7) We constructed two variants of the iSKetSnFR1 and iSketSnFR2 biosensors for expression in mammalian cells. The plasma membrane (_PM) and endoplasmic reticulum (_ER) variants were constructed by a circular polymerase extension cloning procedure. For iSketSnFR1_PM and iSKetSnFR2_PM, we cloned the bacterial constructs into pCMV(MinDis), a variant of pDisplay (Invitrogen, Carlsbad, CA, USA) lacking the hemagglutinin tag (Marvin et al., [2013]). We modified the previous transmembrane domain (Shivange et al., [2019]) as follows. […]
(§8) We find that signals with the iSKetSnFR constructs have brightness similar to those of the previous iNicSnFR cpGFP-based biosensors for nicotine (Shivange et al., [2019]), but the dynamic range is somewhat lower for the iKetSnFRs. […] Fluorescence measurements at λex = 470 nm have been described (Shivange et al., [2019]). […] PM-directed constructs were measured with a region of interest (ROI) that included only the cell periphery.
(§9) Solutions were delivered from elevated reservoirs by gravity flow, through solenoid valves (Automate Scientific, Berkeley, CA, USA), then through tubing fed into a manifold, at a rate of 1–2 ml/min. […] As usual in fluorescence imaging experiments, we excluded data from the brightest cells, because these may have fluorescent impurities or aggregates that produce a rapidly bleaching baseline. […]

iSketSnFR2_PM = assay: Time-resolved fluorescence in Neuro2a cells transfected with iSketSnFR2_PM; type: cell-based
From the text: as §7, §8, §9

iSketSnFR2_ER = assay: Time-resolved fluorescence in Neuro2a cells transfected with iSketSnFR2_ER; type: cell-based
From the text: as §7, §8, §9

iSketSnFR1_PM = assay: Time-resolved fluorescence in iPSC-derived dopaminergic neurons transfected with iSketSnFR1_PM; type: cell-based, human; conditions: Figure 6C, dopaminergic neurons differentiated from iPSCs, average of five cells
From the text: as §7, with “follows. We replaced the terminal KKPR of the PDGF receptor (a putative ER retention motif) with KYLQKRRERRRQ (a p14 Golgi export motif) and ENANSFCYENEVAL (a putative Kir2.X ER export motif).” for “follows.”
(§10) Fujifilm CDI^2 (formerly named Cellular Dynamics International, Madison WI, USA), furnished iCell DopaNeurons. […] The supplier has measured that 89% of the cells are positive for tyrosine hydroxylase by fluorescence-activated cell sorting. […]
as §8, with “periphery. […]” for “periphery.”

iSketSnFR1_ER = assay: Time-resolved fluorescence in iPSC-derived dopaminergic neurons transfected with iSketSnFR1_ER; type: cell-based, human; conditions: Figure 6C, dopaminergic neurons differentiated from iPSCs, average of five cells
From the text: as §7, with “follows. We replaced the terminal KKPR of the PDGF receptor (a putative ER retention motif) with KYLQKRRERRRQ (a p14 Golgi export motif) and ENANSFCYENEVAL (a putative Kir2.X ER export motif).” for “follows.”
as §10
as §8, with “periphery. […]” for “periphery.”

[2] = system: iNicSnFR1, iNicSnFR2, and iNicSnFR3a, as well as 12 other biosensors in the series; assay: Fluorescence test against iNicSnFR biosensors; type: biochemical; conditions: at concentrations <100 μM
Method: as §1, with “sequenced. The most sensitive construct in each round of SSM was used as a template for the next round of SSM.” for “sequenced.”
We tested S-ketamine and R-ketamine (Figure 1) against iNicSnFR1, iNicSnFR2, and iNicSnFR3a, as well as against 12 other biosensors in the series that led to the iNicSnFRs (Shivange et al., [2019]).

[3] = system: endoplasmic reticulum (ER); assay: Subcellular pharmacokinetics: S-ketamine in the endoplasmic reticulum measured with ER- and PM-targeted biosensors; type: cell-based; conditions: Neuro2a cells and human dopaminergic neurons differentiated from iPSCs
From the text: as §7, §8, §9

[4] = after which rapid antidepressant effects occur; ref Lester et al., 2012; Janssen Research and Development, 2019; cited from earlier work
iSketSnFR constructs = assay: Activation of the iSketSnFR constructs by a permanently charged analog; type: biochemical
Method: as §2
The permanently charged nicotine analog, N’-methylnicotinium, previously provided additional insights for the iNicSnFR family (Shivange et al., [2019]).

[5] = Figure 2B1, purified protein, pH 7.0, 3× PBS, Hill fit
[6] = Figure 2B2, purified protein, pH 7.0, 3× PBS, Hill fit
[7] = Figure 5C, sub-μM S-ketamine, linear fit, average of 10 cells
[8] = [S-ketamine] <1 μM, mean ± SD, 25 total cells from two independent transfections

SMILES: CN[C@]1(c2ccccc2Cl)CCCCC1=O [S-ketamine]
- S-Ketamine Dose-Response S-slope (iSketSnFR1 (AK2); Figure 2A, purified protein): 0.32 µM⁻¹
- EC50 (iSketSnFR1 (AK2); [5]): 10.7 ± 1.5 µM
- ΔFmax/F0 (iSketSnFR1 (AK2); [5]): 3.4 ± 0.1
- expected response ΔF/F0 in vitro (iSketSnFR1 (AK2); to 1 μM S-ketamine, expected from S-slope): 0.32
- S-Ketamine Dose-Response S-slope (iSketSnFR2 (AK8); Figure 2A, purified protein): 1.87 µM⁻¹ and 1.9 µM⁻¹
- EC50 (iSketSnFR2 (AK8); [6]): 1.16 ± 0.6 µM
- ΔFmax/F0 (iSketSnFR2 (AK8); [6]): 3.0 ± 0.3
- S-slope (iSketSnFR2 (AK8); Figure 7A, in solution, λEx = 400 nm, pH 7): -0.23 µM⁻¹
- S-slope = delta(F/F0)/(delta[S-ketamine]) (iSketSnFR2 (AK8); in solution (abstract)): 1.9 µM⁻¹
- [S-slope] (magnitude) (iSketSnFR2 (AK8); λex = 400 nm, purified protein, pH range 6 to 8.5 (Supplementary Figure S2)): ≤ 0.3
- ΔF/F0 (AK1): ~ 0.12
- EC50 [1]: ~10 µM
- S-slope (iSketSnFR2_PM; [7]): 0.49 µM⁻¹
- S-slope (iSketSnFR2_PM; [8]): 0.42 ± 0.14 µM⁻¹
- S-slope (iSketSnFR2_ER; [7]): 0.26 µM⁻¹
- S-slope (iSketSnFR2_ER; [8]): 0.29 ± 0.04 µM⁻¹
- S-slope (iSketSnFR1_PM): 0.099 µM⁻¹ and 0.1 µM⁻¹
- S-slope (iSketSnFR1_ER): 0.111 µM⁻¹
- fluorescence increase activated by ligand [2]: no detectable fluorescence increase
- time for entry into the ER after appearing in the external solution [3]: within a few seconds
- time to leave the ER after removal from the extracellular solution [3]: within a few seconds
- peak blood plasma concentrations [4]: 0.2 to 1 µM

SMILES: C[N+](C)(C)[C@]1(c2ccccc2Cl)CCCCC1=O [N,N-dimethyl-S-ketamine]
- activation of the iSketSnFR constructs (iSketSnFR constructs): did not produce robust activation

SMILES: CN[C@@]1(c2ccccc2Cl)CCCCC1=O [R-ketamine]
- concentrations giving detectable responses (iSketSnFR2 (AK8)): > 100 µM
- S-slope lower than that of S-ketamine (iSketSnFR2 (AK8); at iSketSnFR2): at least 100 fold
